# Measurements published in ChEMBL document CHEMBL4732270, “Cell Permeability of Isomeric Macrocycles: Predictions and NMR Studies” (ACS Med Chem Lett, 2021).
# Assay: Lipophilicity, log D of compound at pH 7.4 by UPLC-MS/MS analysis
# Format: physicochemical
# Conditions: buffer
row,Structure (SMILES),logD
1,COC(=O)[C@H]1CSCc2ccccc2C(=O)OC[C@@H](NC(=O)[C@@H]2CCCN2C(C)=O)CN1,0.6
2,COC(=O)[C@H]1CSCc2ccccc2C(=O)OC[C@H](NC(=O)[C@@H]2CCCN2C(C)=O)CN1,0.65
3,COC(=O)[C@@H]1CSCc2ccccc2C(=O)OC[C@@H](NC(=O)[C@@H]2CCCN2C(C)=O)CN1,0.43
4,COC(=O)[C@@H]1CSCc2ccccc2C(=O)OC[C@H](NC(=O)[C@@H]2CCCN2C(C)=O)CN1,0.7
